# Measurements reported in patent US3931188A, “3-Hydroxy-5,6-benzomorphinan derivatives” (Bristol-Myers Company, priority 1974, dated 1976).
# How the values were obtained:
# [1] = test system: analgesic effect induced by morphine; assay: Morphine antagonist rat tail flick (antagonist activity); settings: for ED50: Rattus norvegicus, sc, read-out: ED50 Antagonist Activity, Morphine Antagonist Rat Tail Flick
# [2] = test system: Straub Tail induced by oxymorphone; assay: Oxymorphone Straub Tail antagonism (antagonist activity); type: in vivo, mouse; settings: for ED50: sc, mouse, subcutaneous, hydrochloride salts of IX and X, oxymorphone 2 mg./kg. s.c.
# Protocol: ^2 Antagonism of Straub Tail induced by oxymorphone (2 mg./kg. s.c.)
# [3] = test system: phenylquinone induced writhing; assay: Mouse phenylquinone writhing (analgesic activity); type: in vivo; settings: for ED50: sc, mouse, subcutaneous, hydrochloride salts of IX and X, 50 percent reduction in number of writhings; for analgesic potency relative to pentazocine: in words, compared with pentazocine
# Text: ^1 A 50 percent reduction in number of phenylquinone induced writhing
# [Siegmumd, E.A., et al., Proc. Soc. Biol. & Med 95, p. 729 (1957)].
# [4] = Chemical Abstracts 63, 18050-18051 (Belgian Pat. No. 644,679); cited from earlier work
# [5] = Chemical Abstracts 63, 18050-18051 (Belgian Pat. No. 644,679); cited from earlier work; remark: listed apart in the source
# [6] = monkey; J. Med. Chem. 12, 845-847 (1969); cited from earlier work
# [7] = J. Med. Chem. 12, 845-847 (1969); cited from earlier work
# [8] = Behavioral studies in the dog; type: in vivo; settings: subcutaneous dose of 2 mg./kg.
# Protocol: The normal parenteral dosage of the compounds of this invention in adult humans is about 0.25 to 16 mg. three to four times a day.
Compound,ED50 [1] [mg/kg],ED50 [2] [mg/kg],ED50 [3] [mg/kg],antagonism to meperidine (in words) [4],analgesic activity (in words) [5],side effects in behavioral studies [8],analgesic potency relative to pentazocine [3],other results
"CC(C)=CCN1CCC2(C)c3cc(O)ccc3CC1C2C (centres unmarked) [Pentazocine, reference compound]",12.2,12,3.7,,,,,
Oc1ccc2c(c1)[C@@]13CCCC[C@H]1[C@@H](C2)N(CC1CC1)CC3 [N-cyclopropylmethyl-3-hydroxymorphinan],,,,antagonists to meperidine,analgesics,,,
"NC(=O)N1CCC2CC1Cc1ccc(O)cc12 (centres unmarked) [3-carboxamido-1,2,3,4,5,6-hexahydro-2,6-methano-3-benzazocin-8-ol]",,,,,,,,"physical dependence capacity (in words) [6]: unusual freedom from physical dependence capacity in the monkey; analgetic effect, oral (in words) [7]: orally effective analgetic"
Oc1ccc2c(c1)[C@@]13CCCC[C@H]1[C@@H](C2)N(CC1CCC1)CC3 (stereo in doubt) [N-cyclobutylmethyl-3-hydroxymorphinan],,,,antagonists to meperidine,analgesics,,,
"Oc1ccc2c(c1)[C@]13CCN(CC4CC4)[C@H](C2)[C@@H]1CCc1ccccc13 (relative stereo) [IX, 3-Hydroxy-17-cyclopropylmethyl-5,6-benzomorphinan]",2.3,~40,~4.5,,,free of side effects,about the same analgesic potency as pentazocine,antagonist activity (in words) ([2]; test not given): little antagonist activity
"Oc1ccc2c(c1)[C@]13CCN(CC4CCC4)[C@H](C2)[C@@H]1CCc1ccccc13 (relative stereo) [X, 3-Hydroxy-17-cyclobutylmethyl-5,6-benzomorphinan]",,> 40,~4.5,,,free of side effects,about the same analgesic potency as pentazocine,"times more active as an antagonist in the rat than pentazocine ([1]; rat, relative to pentazocine): approximately 5 times"
